Source: the supplement of paper PMC10307832

Experiments:
Assay in all cases: relative viability (nuclei count vs DMSO), 5 days (fraction); higher = more cells survive
Idelalisib + OSI-027 = compound: CC[C@H](Nc1ncnc2[nH]cnc12)c1nc2cccc(F)c2c(=O)n1-c1ccccc1 [Idelalisib] + COc1cccc2cc(-c3nc([C@H]4CC[C@H](C(=O)O)CC4)n4ncnc(N)c34)[nH]c12 [OSI-027] (partner 0.5 µM)
Summary of the method: (§1)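 Cells from lung cancer lines were seeded into 1536-well plates and, one day later, dosed by pin tool. Treatments were either a single drug or a fixed dose of an anchor drug with five library-drug doses (not always all listed) in √10 steps. After 5 days, nuclei were stained in a one-step fixation (final 0.05% Triton X-100, 1% formaldehyde, 1 ug/ml Hoechst) and counted on 4× images, and relative viability is the treated-to-vehicle nuclei ratio, as the median of duplicate plates.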

Idelalisib + Pictilisib = compound: CC[C@H](Nc1ncnc2[nH]cnc12)c1nc2cccc(F)c2c(=O)n1-c1ccccc1 [Idelalisib] + CS(=O)(=O)N1CCN(Cc2cc3nc(-c4cccc5[nH]ncc45)nc(N4CCOCC4)c3s2)CC1 [Pictilisib] (partner 1 µM)
Summary of the method: as §1

Idelalisib + Pemetrexed = compound: CC[C@H](Nc1ncnc2[nH]cnc12)c1nc2cccc(F)c2c(=O)n1-c1ccccc1 [Idelalisib] + Nc1nc2[nH]cc(CCc3ccc(C(=O)N[C@@H](CCC(=O)O)C(=O)O)cc3)c2c(=O)[nH]1 [Pemetrexed] (partner 0.2 µM)
Summary of the method: as §1

Pemetrexed + Navitoclax = compound: Nc1nc2[nH]cc(CCc3ccc(C(=O)N[C@@H](CCC(=O)O)C(=O)O)cc3)c2c(=O)[nH]1 [Pemetrexed] + CC1(C)CCC(c2ccc(Cl)cc2)=C(CN2CCN(c3ccc(C(=O)NS(=O)(=O)c4ccc(N[C@H](CCN5CCOCC5)CSc5ccccc5)c(S(=O)(=O)C(F)(F)F)c4)cc3)CC2)C1 [Navitoclax] (partner 0.5 µM)
Summary of the method: as §1

## UMC-11
Idelalisib + OSI-027; first compound 0.04 µM
  relative viability: 0.429
Idelalisib + OSI-027; first compound 0.1265 µM
  relative viability: 0.491
Idelalisib + OSI-027; first compound 0.4 µM
  relative viability: 0.542
Idelalisib + OSI-027; first compound 1.265 µM
  relative viability: 0.513
Idelalisib + OSI-027; first compound 4 µM
  relative viability: 0.42
Idelalisib + Pictilisib; first compound 0.04 µM
  relative viability: 0.939
Idelalisib + Pictilisib; first compound 0.1265 µM
  relative viability: 0.744
Idelalisib + Pictilisib; first compound 0.4 µM
  relative viability: 0.778
Idelalisib + Pictilisib; first compound 1.265 µM
  relative viability: 0.939
Idelalisib + Pictilisib; first compound 4 µM
  relative viability: 0.865
Idelalisib + Pemetrexed; first compound 0.04 µM
  relative viability: 0.673
Idelalisib + Pemetrexed; first compound 0.1265 µM
  relative viability: 0.77
Idelalisib + Pemetrexed; first compound 0.4 µM
  relative viability: 0.793
Idelalisib + Pemetrexed; first compound 1.265 µM
  relative viability: 0.839
Idelalisib + Pemetrexed; first compound 4 µM
  relative viability: 0.936
Pemetrexed + Navitoclax; first compound 0.002 µM
  relative viability: 0.292
Pemetrexed + Navitoclax; first compound 0.006325 µM
  relative viability: 0.283
Pemetrexed + Navitoclax; first compound 0.02 µM
  relative viability: 0.354
Pemetrexed + Navitoclax; first compound 0.06325 µM
  relative viability: 0.312
Pemetrexed + Navitoclax; first compound 0.2 µM
  relative viability: 0.344
